From US20230203081A1, “LINCOSAMIDE ANTIBIOTICS AND USES THEREOF” (President and Fellows of Harvard College, priority 2020, published 2023)
≈ marks a conversion by molar mass, not a printed value.

Key:
Type in all cases: cell-based
E. coli armA = experiment: microbe, parasite or virus in culture; settings: Escherichia coli, E. coli HAV#056; Clinical, armA
In short: (§1)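 Per CLSI, MICs by broth microdilution or agar dilution; strains other than streptococci and anaerobes were sub-cultured overnight at 35° C on blood agar, with a final broth inoculum of 5×10^5 CFU/mL.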

E. coli ΔTolC = experiment: microbe, parasite or virus in culture; settings: Escherichia coli, E. coli HAV#038; ΔTolC
In short: as §1

[1] = tested on: broad panel of different clinical isolates; experiment: microbe, parasite or virus in culture
In short: as §1

E. coli ATCC 25922 = experiment: MIC (broth microdilution or agar dilution, CLSI); settings: Escherichia coli, ATCC25922; E. coli HAV#006, ATCC 25922; read-out: MIC
In short: as §1

E. coli LptD = experiment: MIC (broth microdilution or agar dilution, CLSI); settings: Escherichia coli, E. coli HAV#040; LptD; read-out: MIC
In short: as §1

E. faecalis ATCC 29212 = experiment: MIC (broth microdilution or agar dilution, CLSI); settings: Enterococcus faecalis, ATCC29212, E. faecalis HAV#005, ATCC 29212; read-out: MIC
In short: as §1

[2] = tested on: E. faecalis MMX 847; cErmB; experiment: MIC (broth microdilution or agar dilution, CLSI); settings: Enterococcus faecalis; E. faecalis HAV#036, MMX 847; mac-resistant, cErmB; read-out: MIC
In short: as §1

K. oxytoca Clinical = experiment: MIC (broth microdilution or agar dilution, CLSI); settings: Klebsiella oxytoca; K. oxytoca HAV#450; Clinical; read-out: MIC
In short: as §1

K. pneumoniae ATCC 10031 = experiment: MIC (broth microdilution or agar dilution, CLSI); settings: Klebsiella pneumoniae, ATCC10031, K. pneumoniae HAV#008, ATCC 10031; read-out: MIC
In short: as §1

S. aureus ATCC 29213 = experiment: MIC (broth microdilution or agar dilution, CLSI); settings: Staphylococcus aureus, ATCC29213, S. aureus HAV#001, ATCC 29213, MP-549; read-out: MIC
In short: as §1

S. aureus ATCC 700699 = experiment: MIC (broth microdilution or agar dilution, CLSI); settings: Staphylococcus aureus; S. aureus HAV#202, ATCC 700699 (VISA); read-out: MIC
In short: as §1

[3] = tested on: S. aureus ATCC BAA-1707 (MRSA); experiment: MIC (broth microdilution or agar dilution, CLSI); settings: Staphylococcus aureus; S. aureus HAV#016, ATCC BAA-1707; MRSA; read-out: MIC
In short: as §1

S. aureus MMX 3035 cErmA = experiment: MIC (broth microdilution or agar dilution, CLSI); settings: Staphylococcus aureus, MMX3035CERMA; S. aureus HAV#031, MMX 3035; cErmA; read-out: MIC
In short: as §1

S. aureus hVISA = experiment: MIC (broth microdilution or agar dilution, CLSI); settings: Staphylococcus aureus; S. aureus HAV#204, hVISA; read-out: MIC
In short: as §1

S. pneumoniae ATCC 49619 = experiment: MIC (broth microdilution or agar dilution, CLSI); settings: Streptococcus pneumoniae, ATCC49619
In short: as §1

S. pneumoniae ATCC 6303 = experiment: MIC (broth microdilution or agar dilution, CLSI); settings: Streptococcus pneumoniae, ATCC6303; S. pneumoniae HAV#351, ATCC 6303; read-out: MIC
In short: as §1

[4] = tested on: S. pneumoniae MMX 3028 cErmB; experiment: MIC (broth microdilution or agar dilution, CLSI); settings: Streptococcus pneumoniae, MMX3028CERMB; S. pneumoniae HAV#033; MMX 3028, cErmB; read-out: MIC
In short: as §1

[5] = tested on: S. pneumoniae MMX 3031 cMefA; experiment: MIC (broth microdilution or agar dilution, CLSI); settings: Streptococcus pneumoniae, MMX3031CMEFA, S. pneumoniae HAV#034; MMX 3031, cMefA; read-out: MIC
In short: as §1

S. pyogenes ATCC 19615 = experiment: MIC (broth microdilution or agar dilution, CLSI); settings: Streptococcus pyogenes, ATCC19615, S. pyogenes HAV#004, ATCC 19615; read-out: MIC
In short: as §1

[6] = tested on: S. pyogenes MMX 946; cErmB; experiment: MIC (broth microdilution or agar dilution, CLSI); settings: Streptococcus pyogenes; S. pyogenes HAV#035, MMX 946; cErmB, mac-resistant; read-out: MIC
In short: as §1

Structure (SMILES): CC[C@H]1OC(=O)[C@H](C)[C@@H](O[C@H]2C[C@@](C)(OC)[C@@H](O)[C@H](C)O2)[C@H](C)[C@@H](O[C@@H]2O[C@H](C)C[C@H](N(C)C)[C@H]2O)[C@](C)(O)C[C@@H](C)CN(C)[C@H](C)[C@@H](O)[C@]1(C)O [Azithromycin]
- MIC (E. coli armA): 4 µg/mL (≈ 5.34 µM)
- MIC (E. coli ΔTolC): 1 µg/mL (≈ 1.34 µM)
- MIC ([1]; Enterococcus faecalis, E. faecalis HAV#602, Clincal): 4 µg/mL (≈ 5.34 µM)
- MIC ([1]; Enterococcus faecalis, E. faecalis HAV#607, Clinical): > 128 µg/mL
- MIC ([1]; Enterococcus faecalis, E. faecalis HAV#608, Clinical): > 128 µg/mL
- MIC ([1]; Enterococcus faecalis, E. faecalis HAV#609, Clinical): > 128 µg/mL
- MIC ([1]; Enterococcus faecalis, E. faecalis HAV#610, Clinical): > 128 µg/mL
- MIC ([1]; Enterococcus faecalis, S. faecalis 5060, Line R & Vanco R): > 256 µg/mL
- MIC ([1]; Enterococcus faecalis, S. faecalis 5074, Line R): 4 µg/mL (≈ 5.34 µM)
- MIC ([1]; Enterococcus faecalis, VRE, E. faecalis HAV#251, Clinical VRE): > 64 µg/mL
- MIC ([1]; Enterococcus faecalis, VRE, E. faecalis HAV#606, Clinical): > 128 µg/mL
- MIC ([1]; Enterococcus faecium, E. faecium HAV#317, Clinical): 8 µg/mL (≈ 10.7 µM)
- MIC ([1]; Enterococcus faecium, E. faecium HAV#324, Clinical): > 128 µg/mL
- MIC ([1]; Enterococcus faecium, E. faecium HAV#327, Clinical): > 128 µg/mL
- MIC ([1]; Enterococcus faecium, E. faecium HAV#328, Clinical): > 128 µg/mL
- MIC ([1]; Enterococcus faecium, E. faecium HAV#329, Clinical): > 128 µg/mL
- MIC ([1]; Enterococcus faecium, VRE, E. faecium HAV#318, VanA): > 64 µg/mL
- MIC ([1]; Enterococcus faecium, VRE, E. faecium HAV#320, Clinical): > 128 µg/mL
- MIC ([1]; Escherichia coli, E. coli HAV#501, Clinical): 64 µg/mL (≈ 85.4 µM)
- MIC ([1]; Escherichia coli, E. coli HAV#503, Clinical): 8 µg/mL (≈ 10.7 µM)
- MIC ([1]; Escherichia coli, E. coli HAV#511, Clinical): 4 µg/mL (≈ 5.34 µM)
- MIC ([1]; Escherichia coli, E. coli HAV#512, Clinical): 8 µg/mL (≈ 10.7 µM)
- MIC ([1]; Escherichia coli, E. coli HAV#513, Clinical): 8 µg/mL (≈ 10.7 µM)
- MIC ([1]; Escherichia coli, E. coli HAV#514, Clinical): 8 µg/mL (≈ 10.7 µM)
- MIC ([1]; Escherichia coli, E. coli HAV#516, ESBL-producing): 4 µg/mL (≈ 5.34 µM)
- MIC ([1]; Haemophilus influenzae, ATCC9007, H. influenzae HAV#376, ATCC-9007): 2 µg/mL (≈ 2.67 µM)
- MIC ([1]; Klebsiella pneumoniae, K. pneumoniae HAV#041, Clinical, KPC): > 64 µg/mL
- MIC ([1]; Klebsiella pneumoniae, K. pneumoniae HAV#404, Clinical): 8 µg/mL (≈ 10.7 µM)
- MIC ([1]; Klebsiella pneumoniae, K. pneumoniae HAV#405, Clinical): 8 µg/mL (≈ 10.7 µM)
- MIC ([1]; Staphylococcus aureus, MRSA, S. aureus HAV#017, MRSA Col(Colindale, England)): 1 µg/mL (≈ 1.34 µM)
- MIC ([1]; Staphylococcus aureus, MRSA, S. aureus HAV#218, Line R): > 64 µg/mL
- MIC ([1]; Staphylococcus aureus, MRSA, S. aureus HAV#220, Line R): > 64 µg/mL
- MIC ([1]; Staphylococcus aureus, MSSA, S. aureus HAV#219, Line R): > 64 µg/mL
- MIC ([1]; Staphylococcus aureus, S. aureus HAV#051, mecA, norA, spcl, ermA, aad1, aac6′-aph2″): 2 µg/mL (≈ 2.67 µM)
- MIC ([1]; Staphylococcus aureus, S. aureus HAV#052, mecA, norA, fosB, blaZ): 2 µg/mL (≈ 2.67 µM)
- MIC ([1]; Staphylococcus aureus, S. aureus HAV#053 mecA, norA, fosB): 2 µg/mL (≈ 2.67 µM)
- MIC ([1]; Staphylococcus aureus, S. aureus HAV#054, mecA, norA, spcl, aad1, fosB, ermA, aac6′-aph2″, blaZ): > 256 µg/mL
- MIC ([1]; Staphylococcus aureus, S. aureus HAV#211, Clinical): > 64 µg/mL
- MIC ([1]; Staphylococcus aureus, S. aureus HAV#212, Clinical): 1 µg/mL (≈ 1.34 µM)
- MIC ([1]; Staphylococcus aureus, S. aureus HAV#213, Clinical): 0.25 µg/mL (≈ 0.334 µM)
- MIC ([1]; Staphylococcus aureus, S. aureus HAV#214, Clinical): 0.25 µg/mL (≈ 0.334 µM)
- MIC ([1]; Staphylococcus aureus, S. aureus HAV#215, Clinical): 0.25 µg/mL (≈ 0.334 µM)
- MIC ([1]; Staphylococcus aureus, S. aureus HAV#216, Clinical, cfr): > 128 µg/mL
- MIC ([1]; Staphylococcus aureus, S. aureus HAV#217, cfr): > 128 µg/mL
- MIC ([1]; Staphylococcus aureus, VISA, S. aureus HAV#203, Clinical (VISA)): > 64 µg/mL
- MIC ([1]; Staphylococcus epidermidis, S. epidermidis HAV# 275 Clinical, cfr): 32 µg/mL (≈ 42.7 µM)
- MIC ([1]; Staphylococcus epidermidis, S. epidermidis HAV# 276, cfr): > 64 µg/mL
- MIC ([1]; Staphylococcus epidermidis, S. epidermidis HAV#277, Line R): > 64 µg/mL
- MIC ([1]; Staphylococcus epidermidis, S. epidermidis HAV#278 Line R): > 64 µg/mL
- MIC ([1]; Staphylococcus epidermidis, S. epidermidis HAV#279, Line R): > 64 µg/mL
- MIC ([1]; Staphylococcus haemolyticus, S. haemolyticus 5052, Line R & Methicillin R): > 256 µg/mL
- MIC ([1]; Streptococcus pneumoniae, ATCC700673, S. pneumoniae HAV#352, ATCC 700673, MDR): > 64 µg/mL
- MIC ([1]; Streptococcus pneumoniae, ATCCBAA255, S. pneumoniae HAV#354, ATCC-BAA-255): 2 µg/mL (≈ 2.67 µM)
- MIC ([1]; Streptococcus pneumoniae, ATCCBAA334, S. pneumoniae HAV#353, ATCC-BAA-334): 1 µg/mL (≈ 1.34 µM)
- MIC ([1]; Streptococcus pneumoniae, S. pneumoniae HAV#356, Clinical): > 64 µg/mL
- MIC ([1]; Streptococcus pneumoniae, S. pneumoniae HAV#358, Clinical): 2 µg/mL (≈ 2.67 µM)
- MIC (E. coli ATCC 25922): 4 µg/mL (≈ 5.34 µM)
- MIC (E. coli LptD): ≤ 0.03 µg/mL
- MIC (E. faecalis ATCC 29212): 8 µg/mL (≈ 10.7 µM)
- MIC [2]: > 64 µg/mL
- MIC (K. oxytoca Clinical): 16 µg/mL (≈ 21.4 µM)
- MIC (K. pneumoniae ATCC 10031): 4 µg/mL (≈ 5.34 µM)
- MIC (S. aureus ATCC 29213): 1 µg/mL (≈ 1.34 µM)
- MIC (S. aureus ATCC 700699): > 64 µg/mL
- MIC [3]: 1 µg/mL (≈ 1.34 µM)
- MIC (S. aureus MMX 3035 cErmA): > 64 µg/mL
- MIC (S. aureus hVISA): > 64 µg/mL
- MIC (S. pneumoniae ATCC 49619): 0.125 µg/mL (≈ 0.167 µM)
- MIC (S. pneumoniae ATCC 6303): 2 µg/mL (≈ 2.67 µM)
- MIC [4]: > 64 µg/mL
- MIC [5]: 16 µg/mL (≈ 21.4 µM)
- MIC (S. pyogenes ATCC 19615): 0.06 µg/mL (≈ 0.0801 µM)
- MIC [6]: > 64 µg/mL
